Assay results as given in patent publication US20140171419A1, “ENHANCEMENT OF CELLULAR TRANSPLANTATION USING SMALL MOLECULE MODULATORS HEPATOCYTE GROWTH FACTOR (SCATTER FACTOR) ACTIVITY” (ANGION BIOMEDICA CORP, priority 2009, published 2014).

Test system: primary human hepatocytes
Assay: BrdU cell proliferation assay in cryopreserved primary human hepatocytes
Type: cell-based
Conditions: 50 ng/ml, overnight treatment, 4 hour BrdU incubation; control 0.032±0.011
Experimental: Cryopreserved primary human hepatocytes (CellzDirect catalog #[…], Lot # Hu0948) were plated on a collagen-coated 96 well plate according to the supplier's instructions and allowed to adhere and stabilize for 48 hours. Cells were treated with a compound of formula (II) embodied herein (10 μM final concentration) or HGF (50 ng/ml) overnight, and the next day, cell proliferation was determined using a BrdU assay (Chemicon, catalog #2750) according to the manufacturer's instructions, with a 4 hour incubation period of BrdU. Plates were read at 450 and 550 (background) nm and the difference was taken as an indicator of cell proliferation. Both test compound and HGF stimulated the BrdU incorporation in hepatocytes vs. control: test compound, 0.336±0.072; HGF, 0.388±0.134; and control, 0.032±0.011. Hepatocytes enhanced using the compounds of the invention can be used subsequently for cellular transplant into a human recipient, providing enhanced cell survival and numbers to increase the quality of the cells used in the transplant, the survival of cells after transplant and reduce the number of cells required to achieve the desired outcome of the transplant procedure and restoring or enhancing hepatic function in the recipient.

## HGF: hepatocyte growth factor (scatter factor), a pleiotropic growth factor, used as positive comparator
  BrdU incorporation (difference of plate readings at 450 and 550 (background) nm, indicator of cell proliferation): 0.388±0.134
